Laboratory results as given in patent publication US20220089575A1, “FARNESOID X RECEPTOR AGONISTS AND USES THEREOF” (Metacrine, Inc., priority 2017, published 2022).

What follows are compounds tested against T1, hFXR (Homo sapiens, UniProt Q96RI1) (assay: In Vitro FXR Assay (TK): TK-ECRE-luc reporter in transfected CV-1 cells). Settings: 18 hrs, luminescence, maximum efficacy of <25% of the Fexarmine control classified as '+'.
T1 construct: expressed in transfected cells; host or cells: CV-1 cells
T1 sequence (Q96RI1 1-486): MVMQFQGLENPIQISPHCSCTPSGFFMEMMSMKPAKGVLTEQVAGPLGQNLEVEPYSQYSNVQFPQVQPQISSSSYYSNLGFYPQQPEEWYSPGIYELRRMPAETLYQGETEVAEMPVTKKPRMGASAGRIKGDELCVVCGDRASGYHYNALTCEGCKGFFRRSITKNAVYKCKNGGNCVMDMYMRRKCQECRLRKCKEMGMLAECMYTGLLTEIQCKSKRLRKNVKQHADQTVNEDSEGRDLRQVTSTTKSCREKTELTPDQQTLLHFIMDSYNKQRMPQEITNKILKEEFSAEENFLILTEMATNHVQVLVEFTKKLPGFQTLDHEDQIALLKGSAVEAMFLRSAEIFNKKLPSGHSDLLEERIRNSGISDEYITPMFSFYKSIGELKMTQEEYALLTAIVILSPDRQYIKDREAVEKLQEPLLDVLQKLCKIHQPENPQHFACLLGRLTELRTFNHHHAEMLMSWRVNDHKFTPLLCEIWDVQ
T1 sequence (P19793 1-462 partner): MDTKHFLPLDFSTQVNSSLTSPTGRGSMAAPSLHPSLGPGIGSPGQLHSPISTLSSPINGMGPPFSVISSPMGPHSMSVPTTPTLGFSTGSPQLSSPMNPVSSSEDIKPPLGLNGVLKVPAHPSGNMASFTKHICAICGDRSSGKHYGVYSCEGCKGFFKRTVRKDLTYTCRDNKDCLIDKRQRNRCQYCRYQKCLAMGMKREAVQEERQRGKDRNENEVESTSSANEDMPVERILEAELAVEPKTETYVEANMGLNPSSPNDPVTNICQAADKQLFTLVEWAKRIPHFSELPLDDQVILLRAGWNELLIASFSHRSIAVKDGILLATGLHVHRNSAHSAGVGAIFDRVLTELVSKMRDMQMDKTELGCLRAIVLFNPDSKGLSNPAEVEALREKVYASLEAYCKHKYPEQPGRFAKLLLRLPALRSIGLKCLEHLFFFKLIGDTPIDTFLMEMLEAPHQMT
Format: cell-based
In short: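 Transiently transfected monkey CV-1 cells (hFXR, hRXR, TK-ECRE-luciferase, YFP control plasmid), held in stripped-serum DMEM, received compound dilutions from DMSO for 18 h at 37 °C. Activity was taken from luminescence of the cell lysates.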

Row | Structure (SMILES) | EC50
1 | COc1ccc([C@H]2CC[C@H](CN(c3cccc(-c4cnn(C5CC5)c4)c3)C(=O)[C@H]3CC[C@H](OC(=O)NCCO)CC3)CC2)nc1C#N [Compound 6.28, trans-4-(((trans-4-(6-Cyano-5-methoxypyridin-2-yl)cyclohexyl)methyl) (3-(1-cyclopropyl-1H-pyrazol-4-yl)phenyl)carbamoyl)cyclohexyl (2-hydroxyethyl)carbamate] | ≤ 250 nM
2 | COc1ccc([C@H]2CC[C@H](CN(c3cc(-c4cnn(C(C)C)c4)ccn3)C(=O)[C@H]3CC[C@H](OC(=O)N4CC(OC(C)C)C4)CC3)CC2)nc1C [Compound 7.56, trans-4-((4-(1-Isopropyl-1H-pyrazol-4-yl)pyridin-2-yl)((trans-4-(5-methoxy-6-methylpyridin-2-yl)cyclohexyl)methyl)carbamoyl)cyclohexyl 3-isopropoxyazetidine-1-carboxylate] | ≤ 250 nM
3 | CNC(=O)O[C@H]1CC[C@H](C(=O)N(C[C@H]2CC[C@H](c3ccc(OC)c(C#N)c3)CC2)c2cccc(-c3cnn(C4CC4)c3)c2)CC1 [Compound 5.14, trans-4-(((trans-4-(3-Cyano-4-methoxyphenyl)cyclohexyl)methyl)(3-(1-cyclopropyl-1H-pyrazol-4-yl)phenyl)carbamoyl)cyclohexyl methylcarbamate] | ≤ 250 nM
4 | COc1ncc(-c2cccc(N(C[C@H]3CC[C@H](c4ccc(OC)c(C)c4)CC3)C(=O)[C@H]3CC[C@H](C(N)=O)CC3)c2)s1 [Compound 24.01, trans-N^1-((trans-4-(4-Methoxy-3-methylphenyl)cyclohexyl)methyl)-N^1-(3-(2-methoxythiazol-5-yl)phenyl)cyclohexane-1,4-dicarboxamide] | ≤ 250 nM
5 | CNC(=O)O[C@H]1CC[C@H](C(=O)N(C[C@H]2CC[C@H](c3ccc(OC)c(C)c3)CC2)c2cc(-c3cnc(C(C)C)s3)ccn2)CC1 [Compound 5.02, trans-4-((4-(2-Isopropylthiazol-5-yl)pyridin-2-yl)((trans-4-(4-methoxy-3-methylphenyl)cyclohexyl)methyl)carbamoyl)cyclohexyl methylcarbamate] | ≤ 250 nM
6 | COc1ccc([C@H]2CC[C@H](CN(c3cc(-c4coc(C5CC5)n4)ccn3)C(=O)[C@H]3CC[C@H](OC(=O)NCCO)CC3)CC2)cc1C [Compound 6.52, trans-4-((4-(2-Cyclopropyloxazol-4-yl)pyridine-2-yl)((trans-4-(4-methoxy-3-methylphenyl)cyclohexyl)methyl)carbamoyl)cyclohexyl (2-hydroxyethyl) carbamate] | ≤ 250 nM
7 | CCC1CN(C(=O)O[C@H]2CC[C@H](C(=O)N(C[C@H]3CC[C@H](c4ccc(OC)c(C)n4)CC3)c3cc(-c4cnn(C(C)C)c4)ccn3)CC2)C1 [Compound 7.54, trans-4-((4-(1-Isopropyl-1H-pyrazol-4-yl)pyridin-2-yl)((trans-4-(5-methoxy-6-methylpyridin-2-yl)cyclohexyl)methyl)carbamoyl)cyclohexyl 3-ethylazetidine-1-carboxylate] | ≤ 250 nM
8 | COc1ccc([C@H]2CC[C@H](CN(c3cccc(-c4cnn(C5CC5)c4)c3)C(=O)[C@H]3CC[C@H](OC(=O)N4CC(CS(C)(=O)=O)C4)CC3)CC2)cc1C [Compound 9, trans-4-((3-(1-cyclopropyl-1H-pyrazol-4-yl)phenyl)((trans-4-(4-methoxy-3-methylphenyl)cyclohexyl)methyl)carbamoyl)cyclohexyl 3-((methylsulfonyl)methyl)azetidine-1-carboxylate] | ≤ 250 nM
9 | COc1ccc([C@H]2CC[C@H](CN(c3cc(-c4coc(C(C)C)n4)ccn3)C(=O)[C@H]3CC[C@H](OC(=O)N4CC(OC(C)C)C4)CC3)CC2)nc1C [Compound 7.83, trans-4-((4-(2-Isopropyloxazol-4-yl)pyridin-2-yl)((trans-4-(5-methoxy-6-methylpyridin-2-yl)cyclohexyl)methyl)carbamoyl)cyclohexyl 3-isopropoxyazetidine-1-carboxylate] | ≤ 250 nM
10 | CNC(=O)O[C@H]1CC[C@H](C(=O)N(C[C@H]2CC[C@H](c3ccc(OC)c(C)c3)CC2)c2cccc(C#Cc3nccs3)c2)CC1 [Compound 2.04, trans-4-(((trans-4-(4-Methoxy-3-methylphenyl)cyclohexyl)methyl)(3-(thiazol-2-ylethynyl)phenyl)carbamoyl)cyclohexyl methylcarbamate] | ≤ 250 nM
11 | COc1ccc([C@H]2CC[C@H](CN(c3cc(-c4cnn(C(C)C)c4)ccn3)C(=O)[C@H]3CC[C@H](OC(=O)N4CC(C(C)C)C4)CC3)CC2)nc1C [Compound 7.57, trans-4-((4-(1-Isopropyl-1H-pyrazol-4-yl)pyridin-2-yl)((trans-4-(5-methoxy-6-methylpyridin-2-yl)cyclohexyl)methyl)carbamoyl)cyclohexyl 3-isopropylazetidine-1-carboxylate] | ≤ 250 nM
12 | CNC(=O)O[C@H]1CC[C@H](C(=O)N(C[C@H]2CC[C@H](c3ccc(OC)c(C#N)c3)CC2)c2cc(-c3cnn(C4CC4)c3)ccn2)CC1 [Compound 5.17, trans-4-(((trans-4-(3-Cyano-4-methoxyphenyl)cyclohexyl)methyl)(4-(1-cyclopropyl-1H-pyrazol-4-yl)pyridin-2-yl)carbamoyl)cyclohexyl methylcarbamate] | ≤ 250 nM

The next lines start with the values.

Row | EC50 | Structure (SMILES)
13 | ≤ 250 nM | COc1ccc([C@H]2CC[C@H](CN(c3cc(-c4coc(C5CC5)n4)ccn3)C(=O)[C@H]3CC[C@H](OC(N)=O)CC3)CC2)nc1C [Compound 5.48, trans-4-((4-(2-Cyclopropyloxazol-4-yl)pyridine-2-yl)((trans-4-(5-methoxy-6-methylpyridin-2-yl)cyclohexyl)methyl)carbamoyl)cyclohexyl carbamate]
14 | ≥ 1000 nM | COc1ccc([C@H]2CC[C@H](CN(c3cc(-c4cnn(C5CC5)c4)ccn3)C(=O)[C@H]3CC[C@H](C(=O)O)CC3)CC2)nc1C [Compound 17.21, trans-4-((4-(1-Cyclopropyl-1H-pyrazol-4-yl)pyridin-2-yl)((trans-4-(5-methoxy-6-methylpyridin-2-yl)cyclohexyl)methyl)carbamoyl) cyclohexanecarboxylic acid]
15 | ≤ 250 nM | CNC(=O)O[C@H]1CC[C@H](C(=O)N(CC23CCC(c4ccc(OC)c(C)c4)(CC2)CC3)c2cccc(-c3cnn(C4CC4)c3)c2)CC1 [Compound 1.05, 4-((3-(1-Cyclopropyl-1H-pyrazol-4-yl)phenyl)((4-(4-methoxy-3-methylphenyl)bicyclo[2.2.2]octan-1-yl)methyl)carbamoyl)cyclohexyl trans-methylcarbamate]
16 | ≤ 250 nM | COc1ccc([C@H]2CC[C@H](CN(c3cc(-c4cnn(C(C)C)c4)ccn3)C(=O)[C@H]3CC[C@H](NC(=O)COC(C)=O)CC3)CC2)cc1C [Compound 26.34, 2-((trans-4-((4-(1-Isopropyl-1H-pyrazol-4-yl)pyridin-2-yl)((trans-4-(4-methoxy-3-methylphenyl)cyclohexyl)methyl)carbamoyl)cyclohexyl)amino)-2-oxoethyl acetate]
17 | ≤ 250 nM | COc1ccc([C@H]2CC[C@H](CN(c3cccc(-c4cnn(C5CC5)c4)c3)C(=O)[C@H]3CC[C@H](CC(=O)O)CC3)CC2)nc1C [Compound 17.24, 2-(trans-4-((3-(1-Cyclopropyl-1H-pyrazol-4-yl)phenyl)((trans-4-(5-methoxy-6-methylpyridin-2-yl)cyclohexyl)methyl)carbamoyl)cyclohexyl)acetic acid]
